molecular target: T1, CFTR (Homo sapiens, UniProt P13569); experiment: T84 assay (FLIPR membrane potential dye, forskolin/IBMX-stimulated CFTR channel activity); format: cell-based; details: imidazole and triazole-containing compounds (Tables 13, 14, 14′), read-out: IC50 (μM) (T84 assay)
T1 construct: endogenous in cells; host or cells: T84 human colonic cells (ECACC)
Procedure: (§1) For example, Human colonic T84 cells can be acquired from the European Collection of Cell Cultures (ECACC) and grown in standard culture conditions as described by the supplier. On the day before assay 25,000 T84 cells per well are plated into standard black walled, clear bottom 384-well assay plates in standard growth medium consisting of DMEM:F12 with 10% FBS and incubated overnight. On the day of the assay the plates are washed using a standard assay buffer (HBSS with 10 mM Hepes) and incubated for 15 minutes in serum free cell culture medium before the addition of a commercially available membrane potential sensitive fluorescent dye (FLIPRRed membrane potential dye, Molecular Devices Corporation). T84 cells are incubated with the FLIPRRed membrane potential dye for 45 minutes in the presence and absence of test compound before being transferred to a commercially available fluorescence imaging plate reader (FLIPR384, Molecular Devices Corporation). Fluorescence levels are monitored continuously every second for 150 seconds; after an initial 10 second baseline, CFTR channel activity is stimulated through the addition of 10 μM forskolin in the presence of 100 μM of the phosphodiesterase inhibitor iso-butyl-methylxanthine (IBMX). Addition of the forskolin leads to the activation of intracellular adenylyl cylase 1, elevating cAMP levels and results in the phosphorylation and opening of CFTR anion channels. CFTR channel opening causes chloride ion efflux and subsequent depolarization of the cells, which is measured by an increase in fluorescence. CFTR inihibitor compounds prevent cell depolarization and the associatred increase in fluorescence.
as §1, with “Human colonic” for “For example, Human colonic”, “T84 cells are acquired from” for “T84 cells can be acquired from”, “(ECACC) and are grown in” for “(ECACC) and grown in”, “10 μM Forskolin in the” for “10 μM forskolin in the”, “fluorescence. CFTR inhibitor compounds prevent” for “fluorescence. CFTR inihibitor compounds prevent”, “and the associated increase in” for “and the associatred increase in”

T1 sequence (P13569 whole entry): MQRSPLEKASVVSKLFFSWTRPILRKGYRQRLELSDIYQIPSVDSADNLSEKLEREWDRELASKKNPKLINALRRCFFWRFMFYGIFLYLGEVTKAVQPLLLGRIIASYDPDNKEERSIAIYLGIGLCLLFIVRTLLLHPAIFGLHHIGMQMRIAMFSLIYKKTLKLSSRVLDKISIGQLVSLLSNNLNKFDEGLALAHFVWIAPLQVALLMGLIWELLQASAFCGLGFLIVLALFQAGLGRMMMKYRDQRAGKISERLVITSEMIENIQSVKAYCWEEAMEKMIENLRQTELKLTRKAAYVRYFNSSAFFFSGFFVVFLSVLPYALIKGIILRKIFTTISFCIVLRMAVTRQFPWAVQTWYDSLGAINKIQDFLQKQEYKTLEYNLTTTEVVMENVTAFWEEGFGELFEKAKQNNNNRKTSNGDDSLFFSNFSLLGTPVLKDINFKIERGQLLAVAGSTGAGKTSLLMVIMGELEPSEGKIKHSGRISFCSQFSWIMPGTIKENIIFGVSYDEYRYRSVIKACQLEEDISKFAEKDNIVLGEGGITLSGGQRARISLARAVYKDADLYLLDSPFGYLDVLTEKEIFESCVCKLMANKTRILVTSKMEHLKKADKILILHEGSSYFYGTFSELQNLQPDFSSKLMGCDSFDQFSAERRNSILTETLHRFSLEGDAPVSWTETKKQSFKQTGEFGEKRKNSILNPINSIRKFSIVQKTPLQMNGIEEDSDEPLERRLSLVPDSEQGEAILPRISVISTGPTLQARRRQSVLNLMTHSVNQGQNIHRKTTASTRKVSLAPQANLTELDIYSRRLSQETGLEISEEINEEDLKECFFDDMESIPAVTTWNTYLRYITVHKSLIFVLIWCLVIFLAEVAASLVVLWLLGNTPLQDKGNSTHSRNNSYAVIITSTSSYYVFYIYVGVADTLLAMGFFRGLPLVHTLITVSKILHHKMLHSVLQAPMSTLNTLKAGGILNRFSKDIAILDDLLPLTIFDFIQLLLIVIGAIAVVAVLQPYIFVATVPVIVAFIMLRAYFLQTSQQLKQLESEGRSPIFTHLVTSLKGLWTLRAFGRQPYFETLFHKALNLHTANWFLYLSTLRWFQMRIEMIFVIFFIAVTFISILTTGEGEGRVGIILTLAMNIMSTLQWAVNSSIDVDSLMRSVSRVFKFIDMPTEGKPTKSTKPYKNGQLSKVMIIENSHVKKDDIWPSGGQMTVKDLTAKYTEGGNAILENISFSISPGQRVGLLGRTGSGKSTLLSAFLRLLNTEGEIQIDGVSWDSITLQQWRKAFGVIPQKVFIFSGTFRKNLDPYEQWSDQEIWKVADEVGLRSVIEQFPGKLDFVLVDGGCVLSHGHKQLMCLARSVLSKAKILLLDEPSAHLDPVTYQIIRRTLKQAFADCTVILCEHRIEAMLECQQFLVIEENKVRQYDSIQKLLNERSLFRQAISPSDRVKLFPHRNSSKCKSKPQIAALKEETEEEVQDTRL

Row | SMILES | IC50 [µM]
1 | O=C(c1ncn(-c2cc(Cl)c(O)c(Cl)c2)n1)N1CCC(Cc2ccccc2)CC1 [5i, (4-benzylpiperidin-1-yl)(1-(3,5-dichloro-4-hydroxyphenyl)-1H-1,2,4-triazol-3-yl)methanone] | 15.9
2 | CN(Cc1cccc(C(F)(F)F)c1)C(=O)c1ncn(-c2cc(Cl)c(O)c(Cl)c2)n1 [6i, 1-(3,5-dichloro-4-hydroxyphenyl)-N-methyl-N-(3-(trifluoromethyl)benzyl)-1H-1,2,4-triazole-3-carboxamide] | 16.2

Further lines, results first:

Row | IC50 [µM] | SMILES
3 | 15.7 | CN(Cc1ccc(OC(F)(F)F)cc1)C(=O)c1ncn(-c2cc(Cl)c(O)c(Cl)c2)n1 [7i, 1-(3,5-dichloro-4-hydroxyphenyl)-N-methyl-N-(4(trifluoromethoxy)benzyl)-1H-1,2,4-triazole-3-carboxamide]
4 | 22.4 | O=C(NCc1cccc(C(F)(F)F)c1)c1ncn(-c2cc(Cl)c(O)c(Cl)c2)n1 [8i, 1-(3,5-dichloro-4-hydroxyphenyl)-N-(3-(trifluoromethyl)benzyl)-1H-1,2,4-triazole-3-carboxamide]
5 | 17.6 | CC(NC(=O)c1ncn(-c2cc(Cl)c(O)c(Cl)c2)n1)c1ccc(F)cc1 (stereo not shown) [9i, 1-(3,5-dichloro-4-hydroxyphenyl)-N-(1-(4-fluorophenyl)ethyl)-1H-1,2,4-triazole-3-carboxamide]

same assay, conditions: isoxazole-containing compounds (Table 10, 10′, 11, 11′), read-out: IC50

Row | SMILES | IC50 [µM]
6 | CN(Cc1ccccc1)C(=O)c1cc(-c2cc(Br)c(O)c(Br)c2)on1 [1g, N-Benzyl-5-(3,5-dibromo-4-hydroxyphenyl)-N-methylisoxazole-3-carboxamide] | 7.65
7 | CN(Cc1cccc(C(F)(F)F)c1)C(=O)c1cc(-c2cc(Br)c(O)c(Br)c2)on1 [3g, 5-(3,5-dibromo-4-hydroxyphenyl)-N-methyl-N-(3-(trifluoromethyl)benzyl)isoxazole-3-carboxamide] | 16.6
8 | CN(Cc1ccc2c(c1)OCO2)C(=O)c1cc(-c2cc(Br)c(O)c(Br)c2)on1 [4g, N-(benzo[d][1,3]dioxol-5-ylmethyl)-5-(3,5-dibromo-4-hydroxyphenyl)-N-methylisoxazole-3-carboxamide] | 19
9 | CN(Cc1ccc(Cl)cc1)C(=O)c1cc(-c2cc(Br)c(O)c(Br)c2)on1 [5g, N-(4-chlorobenzyl)-5-(3,5-dibromo-4-hydroxyphenyl)-N-methylisoxazole-3-carboxamide] | 5.31
10 | CN(Cc1cccc(C(F)(F)F)c1)C(=O)c1cc(-c2cc(Cl)c(O)c(Cl)c2)on1 [6g, 5-(3,5-dichloro-4-hydroxyphenyl)-N-methyl-N-(3-(trifluoromethyl)benzyl)isoxazole-3-carboxamide] | 7.02

Other lines, results leading:

Row | IC50 [µM] | SMILES
11 | 10.6 | CN(Cc1ccc(C(F)(F)F)cc1)C(=O)c1cc(-c2cc(Cl)c(O)c(Cl)c2)on1 [7g, 5-(3,5-dichloro-4-hydroxyphenyl)-N-methyl-N-(4(trifluoromethyl)benzyl)isoxazole-3-carboxamide]
12 | 14.6 | CN(Cc1ccc2c(c1)OCO2)C(=O)c1cc(-c2cc(Cl)c(O)c(Cl)c2)on1 [8g, N-(benzo[d][1,3]dioxol-5-ylmethyl)-5-(3,5-dichloro-4-hydroxyphenyl)-N-methylisoxazole-3-carboxamide]
13 | 8.96 | O=C(c1cc(-c2cc(Br)c(O)c(Br)c2)on1)N1CCC(Cc2ccccc2)CC1 [9g, (4-Benzylpiperidin-1-yl)(5-(3,5-dibromo-4-hydroxyphenyl)isoxazol-3-yl)methanone]

same assay, conditions: oxadiazole-containing compounds (a series), average of at least 2 runs unless annotated n = 1, read-out: IC50

Row | SMILES | IC50 [µM]
14 | O=C(c1nc(-c2cc(Br)c(O)c(Br)c2)no1)N(Cc1cccnc1)Cc1cccc(C(F)(F)F)c1 [2a, 3-(3,5-dibromo-4-hydroxyphenyl)-N-(pyridin-3-ylmethyl)-N-(3-(trifluoromethyl)benzyl)-1,2,4-oxadiazole-5-carboxamide] | 1.03
15 | CN(C(=O)c1nc(-c2cc(Br)c(O)c(Br)c2)no1)c1ccc(OC(F)(F)F)cc1 [3a, 3-(3,5-dibromo-4-hydroxyphenyl)-N-methyl-N-(4(trifluoromethoxy)phenyl)-1,2,4-oxadiazole-5-carboxamide] | 2.62
16 | O=C(c1nc(-c2cc(Br)c(O)c(Br)c2)no1)N1CCN(c2ccc(Cl)c(C(F)(F)F)c2)CC1 [4a, (4-(4-chloro-3-(trifluoromethyl)phenyl)piperazin-1-yl)(3-(3,5-dibromo-4-hydroxyphenyl)-1,2,4-oxadiazol-5-yl)methanone] | 4.72
17 | O=C(NC(c1ccccc1)c1ccccc1)c1nc(-c2cc(Br)c(O)c(Br)c2)no1 [5a, N-benzhydryl-3-(3,5-dibromo-4-hydroxyphenyl)-1,2,4-oxadiazole-5-carboxamide] | 5.23
18 | O=C(c1nc(-c2cc(Br)c(O)c(Br)c2)no1)N1CCN(c2cccc(C(F)(F)F)c2)CC1 [6a, (3-(3,5-dibromo-4-hydroxyphenyl)-1,2,4-oxadiazol-5-yl)(4-(3-(trifluoromethyl)phenyl)piperazin-1-yl)methanone] | 6.19

The next lines start with the values.

Row | IC50 [µM] | SMILES
19 | 5.22 | O=C(NCc1ccc(Oc2ccccc2)cc1)c1nc(-c2cc(Cl)c(O)c(Cl)c2)no1 [7a, 3-(3,5-dichloro-4-hydroxyphenyl)-N-(4-phenoxybenzyl)-1,2,4-oxadiazole-5-carboxamide]
20 | 6.88 | O=C(c1nc(-c2cc(Cl)c(O)c(Cl)c2)no1)N1CCN(c2cccc(C(F)(F)F)c2)CC1 [8a, (3-(3,5-dichloro-4-hydroxyphenyl)-1,2,4-oxadiazol-5-yl)(4-(3-(trifluoromethyl)phenyl) 4-(3-(trifluoromethyl)phenyl)piperazin-1-yl)methanone]
21 | 7.17 | O=C(NCC(c1ccccc1)c1ccccc1)c1nc(-c2cc(Br)c(O)c(Br)c2)no1 [9a, 3-(3,5-dibromo-4-hydroxyphenyl)-N-(2,2-diphenylethyl)-1,2,4-oxadiazole-5-carboxamide]
22 | 7.26 | O=C(NCc1ccc2sccc2c1)c1nc(-c2cc(Br)c(O)c(Br)c2)no1 [10a, N-(benzo[b]thiophen-5-ylmethyl)-3-(3,5-dibromo-4-hydroxyphenyl)-1,2,4-oxadiazole-5-carboxamide]

same assay, conditions: thiadiazole-containing compounds (Table 12), read-out: IC50

Row | SMILES | IC50 [µM]
23 | Oc1c(Cl)cc(-c2nnc(Cc3cccc(Cl)c3)s2)cc1Cl [1h, 2,6-dichloro-4-(5-(3-chlorobenzyl)-1,3,4-thiadiazol-2-yl)phenol] | 5.65
24 | Oc1c(Cl)cc(-c2nnc(COc3ccc(F)cc3Cl)s2)cc1Cl [2h, 2,6-dichloro-4(5-((2-chloro-4-fluorophenoxy)methyl)-1,3,4-thiadiazol-2-yl)phenol] | 5.65
25 | Oc1c(Cl)cc(-c2nnc(CN3c4ccccc4Sc4ccccc43)s2)cc1Cl [3h, 4-(5-((10H-Phenothiazin-10-yl)methyl)-1,3,4-thiadiazol-2-yl)-2,6-dichlorophenol] | 6.57
26 | Cc1cc(Cl)ccc1OCc1nnc(-c2cc(Cl)c(O)c(Cl)c2)s1 [4h, 2,6-dichloro-4(5-((4-chloro-2-methylphenoxy)methyl)-1,3,4-thiadiazol-2-yl)phenol] | 12.7
27 | Oc1c(Cl)cc(-c2nnc(-c3snnc3-c3ccccc3)s2)cc1Cl [5h, 2,6-dichloro-4(5-(4-phenyl-1,2,3-thiadiazol-5-yl)-1,3,4-thiadiazol-2-yl)phenol] | 13.4
28 | Oc1c(Cl)cc(-c2nnc(Cc3ccsc3)s2)cc1Cl [6h, 2,6-dichloro-4-(5-(thiophen-3-ylmethyl)-1,3,4-thiadiazol-2-yl)phenol] | 17.6

The remaining lines, values ahead:

Row | IC50 [µM] | SMILES
29 | 23.4 | Oc1c(Cl)cc(-c2nnc(COc3cccc(C(F)(F)F)c3)s2)cc1Cl [7h, 2,6-dichloro-4(5-((3-(trifluoromethyl)phenoxy)methyl)-1,3,4-thiadiazol-2-yl)phenol]
30 | 8.64 | CN(CCO)C(=O)COc1c(Cl)cc(-c2nnc(CN3c4ccccc4Sc4ccccc43)s2)cc1Cl [8h, 2-(4-(5-((10H-phenothiazin-10-yl)methyl)-1,3,4-thiadiazol-2-yl)-2,6-dichlorophenoxy)-N-(2-hydroxyethyl)-N-methylacetamide]
31 | 9.69 | O=C(COc1c(Cl)cc(-c2nnc(CN3c4ccccc4Sc4ccccc43)s2)cc1Cl)N(CCO)CCO [9h, 2-(4-(5-((10H-phenothiazin-10-yl)methyl)-1,3,4-thiadiazol-2-yl)-2,6-dichlorophenoxy)-N,N-bis(2-hydroxyethyl)acetamide]

Reference: patent publication US20100144733A1, “Compounds, compositions and methods comprising heteroaromatic derivatives” (Institute for OneWorld Health, priority 2008, published 2010)
